Laboratory results as given in patent US20070112026A1, “Carbostyril derivatives for accelerating salivation” (priority 2003, published 2007).

Experiments:
non-anesthetized rats = experiment: Salivation amount in non-anesthetized rats after intragastric administration (esophagus diverticulum collection); format: in vivo; conditions: saliva collected for 4 hours, average ± standard error
Description: The effects of the present active compound by intragastric administration in non-anesthetized rats with respect to the salivation were studied as mentioned below. Using non-anesthetized rats, the saliva being swallowed for 4 hours on awaking into the diverticulum placed at the esophagus was collected and the salivation amount (g) was measured. Vehicle (0.5% sodium carboxymethyl cellulose solution) or Rebamipide 10, 30 or 100 mg/kg was intragastrically administered once when the esophagus diverticulum was set, and as a result, the average ± standard error of the salivation amount was 0.88±0.23 g (n=7) in the vehicle-treated group, 0.99±0.21 g (n=8) in the Rebamipide (10 mg/kg)-treated group, 1.37±0.26 g (n=7) in the Rebamipide (30 mg/kg)-treated group, and 1.72±0.40 g (n=8) in the Rebamipide (100 mg/kg)-treated group.

[1] = test system: patient suffering from mouth dryness accompanying Sjögren's syndrome; experiment: Case of a patient suffering from mouth dryness accompanying Sjögren's syndrome (Saxon test); format: in vivo, human; conditions: for Subjective symptoms: 300 mg/day started May 29, 2003; for Salivation amount (Saxon test): 300 mg/day started May 29, 2003 (0.89 g at start), one patient
Source text: Effects of the present compound 2-(4-chlorobenzoyl-amino}-3-(2-quinolon-4-yl)propionic acid on a patient suffering from mouth dryness accompanying Sjögren's syndrome:
(1) Patient: A person.
(2) Chief Complaint: Cotton Mouth, Mattering of Eyes.
The symptoms of the mouth dryness were significant dry of toungue and significant lowering of salivaition (0.52 g in Saxon test). No swelling of parotid gland. Eye dryness was Silmer test (right 2 mm, left 1 mm), Rose bengal test (3+). No inflammation of the eye. Examination findings were ESR 17 mm/hr., WBC 5500/μL, RBC 484×10^4/μL, Hgb 13.4 g/dL, T.P. 8.4 g/dL, Alb 4.4 g/dL, AST 17 IU/mL, ALT 9 IU/mL, Amylase 140 IU/L, CK 46 IU/L, Cr 0.69 mg/dL, BUN 14.0 mg/dL, CRP<0.3 mg/dL, ANA 640 folds (speckled pattern), anti-SS-A antibody 126 times, Anti-SS-B antibody, negative, IgG 2270 mg/dL, IgA 368 mg/dL, IgM 132 mg/dL, and immune complex, Ciq solid-phase method, 3.3 (positive). (5) Clinical Course:
Administration of 2-(4-chloro-benzoylamino)-3-(2-quinolon-4-yl)propionic acid (300 mg/day)was started on May 29, 2003. […] 25, 2003 and then the subjective symptoms were improved. The salivation amount more increased to 1.86 g on Jul. 23, 2003 and then the subjective symptoms were also more improved.

[2] = test system: patients with Sjögren's syndrome; experiment: Effects on xerostomia in patients with Sjögren's syndrome (subjective symptom scores, Saxon Test, overall evaluation); format: in vivo, human; conditions: for Salivation amount (Saxon test) / Total scores of subjective symptoms: 100 mg tablet orally three times per day, 21 patients; for Salivation amount (Saxon test): 1.29±1.00 g before administration; for Total scores of subjective symptoms: 9.6±4.1 before administration; for Overall evaluation: "Effective" / Overall evaluation: "Non-effective" / Overall evaluation: "Remarkably effective": of 21 patients
Description: The effects of the present active compound on xerostomia in patients with Sjögren's syndrome was tested. The test was carried out for 21 patients (age: 27 to 85 years old, all female) who were diagnosed as surely having Sjögren's syndrome on the basis of Revised Diagnosis Standard for Sjögren's syndrome (issued by Ministry of Health, Labour and Welfare in Japan in 1999). Tablet containing 2-(4-chlorobenzoylamino)-3-(2-quinolon-4-yl)propionic acid (100 mg per tablet) was orally administered three times per day immediately after a meal (one tablet for each time) for 8 weeks. i) Evaluation by patients themselves as to subjective symptoms (e.g. feeling of dryness of the mouth, hydromania, pain in the mouth, taste disorder, difficulty in dietary intake, abnormality of saliva) before administration of tablet, after administration of tablet for 4 weeks and 8 weeks, respectively. […] Based on the salivation amount thus measured, the increasing rate of salivation was determined by the following equation: [formula] The effects of the test compound were evaluated based on both of the improvement of subjective symptoms and the salivation amount, which was classified in three degrees as follows. “Remarkably effective: Both of the improved rate of subjective symptoms and the increasing rate of salivation being more than 50%; “Effective”: Either of the improved rate of subjective symptoms or the increasing rate of salivation being more than 50%; “Non-effective”: Neither the improvement of subjective symptoms nor the increasing of salivation being observed. The experimental results were statistically evaluated in accordance with Wilcoxon's rank test.

anesthetized rats = experiment: Salivation amount in anesthetized rats after intravenous administration; format: in vivo; conditions: for Salivation amount: over 20 minutes, average ± standard error; for Salivation amount, comparison with the vehicle-treated group: vehicle = 100
Description: The effects of the present active compound on salivation in anesthetized rats were studied as mentioned below. Models for studying salivation were prepared according to the method of Masunaga, et al. (Masunaga, H., et al., Long-lasting salivation induced by a novel Muscarinic receptor agonist SNI-201 in rats and dogs. Eur. J. Pharmacol., 339: 1-9, 1997). Namely, rats had been fasted from the day before the experiment except that the intake of water was freely allowed, and the rats were anesthetized with Nembutal (=pentobarbital sodium). The rats were put down on the back, and the neck was subjected to midline incision. An ATOM anionic fluid suction catheter of 6Fr. was inserted to the air tube in order to keep the airway clear. Next, a polyethylene tube (SP55 Natsume) containing a solution of 10 U/ml heparin in physiological saline was inserted into the […] for administration of a medicament. A 0.03 mg/ml or 0.1 mg/ml solution of the test compound (2-(4-Chlorobenzoylamino)-3-(2-quinolon-4-yl)-propionic acid; general name: Rebamipide) in 2% aqueous sodium hydrogen carbonate solution, and a vehicle (2% aqueous sodium hydrogen carbonate solution) as a control solution were used, and the test compound solution and the control solution in an amount of 1 mL/kg were respectively administered intravenously via the polyethylene tube inserted into the […]. Then, the salivation amount was measured every 10 minutes for 20 minutes with using cotton swabs, and the salivation amount per one minute was calculated from the total salivation amount for this period. In this measurement, the salivation amount was measured in such a way that the dried cotton swab (the weight thereof was previously measured) was inserted into the mouth of rat, and the swab was exchanged with a new dried one in every ten minutes, and the total salivation amount was calculated from the difference in the weight of the swab between before and after inserting into the mouth. The average salivation amount was calculated as measured in the vehicle-treated group (5 animals), the test compound (0.03 mg/kg)-treated group (5 animals) and the test compound (0.1 mg/kg)-treated group (4 animals), and the percentage of the average salivation amount in the test compound-treated groups against that of the vehicle-treated group was calculated.

[3] = test system: patient with Sjögren's syndrome; experiment: Patient record: earlier treatments of the same Sjögren's syndrome patient; format: in vivo, human; conditions: earlier treatment of the patient of Experiment 4
Description: Around February 1999, the patient visited a hospital in view of dryness of mouth and difficulty in tearing. Then, they were diagnosed to have Sjögren's syndrome in view of antinuclear antibody: 160 times, anti-SSR-A antibody: 126 times, Gum test: 8 ml, lowered function of salivary gland, ophthalmic Silmer test (right 4 mm, left 3 mm), dry kerato-conjunctivitis. […] Besides, Salivate spray was also applied but it was not effective and discontinued. After moving their home because of marriage, their hospital was change on May 1, 2003. Before the changing the hospital, an ophthalmic drop containing chondroitin sulfate has frequently been used for treating dry conjunctivitis.

O=C(NC(Cc1cc(=O)[nH]c2ccccc12)C(=O)O)c1ccc(Cl)cc1 (centres unmarked) [Rebamipide, 2-(4-Chlorobenzoylamino)-3-(2-quinolon-4-yl)-propionic acid]
Salivation amount (non-anesthetized rats; 10 mg/kg intragastric once, n=8): 0.99 ± 0.21 g
Salivation amount (non-anesthetized rats; 30 mg/kg intragastric once, n=7): 1.37 ± 0.26 g
Salivation amount (non-anesthetized rats; 100 mg/kg intragastric once, n=8): 1.72 ± 0.40 g
Subjective symptoms ([1]; Jul. 23, 2003): more improved
Salivation amount (Saxon test) ([1]; Jul. 23, 2003): 1.86 g
Subjective symptoms ([1]; Jun. 25, 2003): improved
Salivation amount (Saxon test) ([1]; Jun. 25, 2003): 1.55 g
Effectiveness ([2]; after 4 weeks): 52.4%
Salivation amount (Saxon test) ([2]; after 4 weeks): 1.95 ± 1.21 g
Total scores of subjective symptoms ([2]; after 4 weeks): 6.6±3.2
Overall evaluation: "Effective" ([2]; after 4 weeks): 9 patients
Overall evaluation: "Non-effective" ([2]; after 4 weeks): 10 patients
Overall evaluation: "Remarkably effective" ([2]; after 4 weeks): 2 patients
Effectiveness ([2]; after 8 weeks): 61.9%
Salivation amount (Saxon test) ([2]; after 8 weeks): 1.93 ± 1.14 g
Total scores of subjective symptoms ([2]; after 8 weeks): 5.2±2.6
Overall evaluation: "Effective" ([2]; after 8 weeks): 7 patients
Overall evaluation: "Non-effective" ([2]; after 8 weeks): 8 patients
Overall evaluation: "Remarkably effective" ([2]; after 8 weeks): 6 patients
Salivation amount (anesthetized rats; 0.03 mg/kg intravenous, n=5, listed as Test compound): 0.262 ± 0.084 mg/min
Salivation amount (anesthetized rats; 0.03 mg/kg intravenous, n=5, listed as test compound): 0.262 ± 0.084 mg/min
Salivation amount, comparison with the vehicle-treated group (anesthetized rats; 0.03 mg/kg intravenous): 205%
Salivation amount (anesthetized rats; 0.1 mg/kg intravenous, n=4, listed as Test compound): 0.305 ± 0.097 mg/min
Salivation amount (anesthetized rats; 0.1 mg/kg intravenous, n=4, listed as test compound): 0.305 ± 0.097 mg/min
Salivation amount, comparison with the vehicle-treated group (anesthetized rats; 0.1 mg/kg intravenous): 239%

C[C@@H]1O[C@@]2(CS1)CN1CCC2CC1.Cl [Sebimerine hydrochloride]
Side effects leading to stop of administration [3]: abdominal discomfort and stomach ache
